Patent publication US8623869B2, “Compounds useful as inhibitors of ATR kinase” (Vertex Pharmaceuticals Incorporated, priority 2010, dated 2014)

Target: T1, full-length ATR (Homo sapiens, UniProt Q13535)
T1 construct: Assays were carried out at 25° C. in the presence of 5 nM full-length ATR
Experiment: ATR Inhibition Assay (radioactive-phosphate incorporation)
Format: biochemical
Conditions: Ki(app); 5 nM full-length ATR, 10 μM ATP, 800 μM target peptide, 25° C.
Procedure: Compounds were screened for their ability to inhibit ATR kinase using a radioactive-phosphate incorporation assay. Assays were carried out in a mixture of 50 mM Tris/HCl (pH 7.5), 10 mM MgCl2 and 1 mM DTT. Final substrate concentrations were 10 μM [γ-33P]ATP (3mCi 33P ATP/mmol ATP, Perkin Elmer) and 800 μM target peptide (ASELPASQPQPFSAKKK).
Assays were carried out at 25° C. in the presence of 5 nM full-length ATR. An assay stock buffer solution was prepared containing all of the reagents listed above, with the exception of ATP and the test compound of interest. 13.5 μL of the stock solution was placed in a 96 well plate followed by addition of 2 μL of DMSO stock containing serial dilutions of the test compound (typically starting from a final concentration of 15 μM with 3-fold serial dilutions) in duplicate (final DMSO concentration 7%). The plate was pre-incubated for 10 minutes at 25° C. and the reaction initiated by addition of 15 μL [γ-33P]ATP (final concentration 10 μM).
The reaction was stopped after […] by the addition of 30 μL 0.1M phosphoric acid containing 2 mM ATP. A multiscreen phosphocellulose filter 96-well plate (Millipore, Cat no. MAPHN0B50) was pretreated with 100 μL 0.2M phosphoric acid prior to the addition of 45 μL of the stopped assay mixture. The plate was washed with 5×200 μL 0.2M phosphoric acid. After drying, 100 μL Optiphase ‘SuperMix’ liquid scintillation cocktail (Perkin Elmer) was added to the well prior to scintillation counting (1450 Microbeta Liquid Scintillation Counter, Wallac).
After removing mean background values for all of the data points, Ki(app) data were calculated from non-linear regression analysis of the initial rate data using the Prism software package (GraphPad Prism version 3.0cx for Macintosh, GraphPad Software, San Diego Calif., USA).

T1 sequence (Q13535 whole entry): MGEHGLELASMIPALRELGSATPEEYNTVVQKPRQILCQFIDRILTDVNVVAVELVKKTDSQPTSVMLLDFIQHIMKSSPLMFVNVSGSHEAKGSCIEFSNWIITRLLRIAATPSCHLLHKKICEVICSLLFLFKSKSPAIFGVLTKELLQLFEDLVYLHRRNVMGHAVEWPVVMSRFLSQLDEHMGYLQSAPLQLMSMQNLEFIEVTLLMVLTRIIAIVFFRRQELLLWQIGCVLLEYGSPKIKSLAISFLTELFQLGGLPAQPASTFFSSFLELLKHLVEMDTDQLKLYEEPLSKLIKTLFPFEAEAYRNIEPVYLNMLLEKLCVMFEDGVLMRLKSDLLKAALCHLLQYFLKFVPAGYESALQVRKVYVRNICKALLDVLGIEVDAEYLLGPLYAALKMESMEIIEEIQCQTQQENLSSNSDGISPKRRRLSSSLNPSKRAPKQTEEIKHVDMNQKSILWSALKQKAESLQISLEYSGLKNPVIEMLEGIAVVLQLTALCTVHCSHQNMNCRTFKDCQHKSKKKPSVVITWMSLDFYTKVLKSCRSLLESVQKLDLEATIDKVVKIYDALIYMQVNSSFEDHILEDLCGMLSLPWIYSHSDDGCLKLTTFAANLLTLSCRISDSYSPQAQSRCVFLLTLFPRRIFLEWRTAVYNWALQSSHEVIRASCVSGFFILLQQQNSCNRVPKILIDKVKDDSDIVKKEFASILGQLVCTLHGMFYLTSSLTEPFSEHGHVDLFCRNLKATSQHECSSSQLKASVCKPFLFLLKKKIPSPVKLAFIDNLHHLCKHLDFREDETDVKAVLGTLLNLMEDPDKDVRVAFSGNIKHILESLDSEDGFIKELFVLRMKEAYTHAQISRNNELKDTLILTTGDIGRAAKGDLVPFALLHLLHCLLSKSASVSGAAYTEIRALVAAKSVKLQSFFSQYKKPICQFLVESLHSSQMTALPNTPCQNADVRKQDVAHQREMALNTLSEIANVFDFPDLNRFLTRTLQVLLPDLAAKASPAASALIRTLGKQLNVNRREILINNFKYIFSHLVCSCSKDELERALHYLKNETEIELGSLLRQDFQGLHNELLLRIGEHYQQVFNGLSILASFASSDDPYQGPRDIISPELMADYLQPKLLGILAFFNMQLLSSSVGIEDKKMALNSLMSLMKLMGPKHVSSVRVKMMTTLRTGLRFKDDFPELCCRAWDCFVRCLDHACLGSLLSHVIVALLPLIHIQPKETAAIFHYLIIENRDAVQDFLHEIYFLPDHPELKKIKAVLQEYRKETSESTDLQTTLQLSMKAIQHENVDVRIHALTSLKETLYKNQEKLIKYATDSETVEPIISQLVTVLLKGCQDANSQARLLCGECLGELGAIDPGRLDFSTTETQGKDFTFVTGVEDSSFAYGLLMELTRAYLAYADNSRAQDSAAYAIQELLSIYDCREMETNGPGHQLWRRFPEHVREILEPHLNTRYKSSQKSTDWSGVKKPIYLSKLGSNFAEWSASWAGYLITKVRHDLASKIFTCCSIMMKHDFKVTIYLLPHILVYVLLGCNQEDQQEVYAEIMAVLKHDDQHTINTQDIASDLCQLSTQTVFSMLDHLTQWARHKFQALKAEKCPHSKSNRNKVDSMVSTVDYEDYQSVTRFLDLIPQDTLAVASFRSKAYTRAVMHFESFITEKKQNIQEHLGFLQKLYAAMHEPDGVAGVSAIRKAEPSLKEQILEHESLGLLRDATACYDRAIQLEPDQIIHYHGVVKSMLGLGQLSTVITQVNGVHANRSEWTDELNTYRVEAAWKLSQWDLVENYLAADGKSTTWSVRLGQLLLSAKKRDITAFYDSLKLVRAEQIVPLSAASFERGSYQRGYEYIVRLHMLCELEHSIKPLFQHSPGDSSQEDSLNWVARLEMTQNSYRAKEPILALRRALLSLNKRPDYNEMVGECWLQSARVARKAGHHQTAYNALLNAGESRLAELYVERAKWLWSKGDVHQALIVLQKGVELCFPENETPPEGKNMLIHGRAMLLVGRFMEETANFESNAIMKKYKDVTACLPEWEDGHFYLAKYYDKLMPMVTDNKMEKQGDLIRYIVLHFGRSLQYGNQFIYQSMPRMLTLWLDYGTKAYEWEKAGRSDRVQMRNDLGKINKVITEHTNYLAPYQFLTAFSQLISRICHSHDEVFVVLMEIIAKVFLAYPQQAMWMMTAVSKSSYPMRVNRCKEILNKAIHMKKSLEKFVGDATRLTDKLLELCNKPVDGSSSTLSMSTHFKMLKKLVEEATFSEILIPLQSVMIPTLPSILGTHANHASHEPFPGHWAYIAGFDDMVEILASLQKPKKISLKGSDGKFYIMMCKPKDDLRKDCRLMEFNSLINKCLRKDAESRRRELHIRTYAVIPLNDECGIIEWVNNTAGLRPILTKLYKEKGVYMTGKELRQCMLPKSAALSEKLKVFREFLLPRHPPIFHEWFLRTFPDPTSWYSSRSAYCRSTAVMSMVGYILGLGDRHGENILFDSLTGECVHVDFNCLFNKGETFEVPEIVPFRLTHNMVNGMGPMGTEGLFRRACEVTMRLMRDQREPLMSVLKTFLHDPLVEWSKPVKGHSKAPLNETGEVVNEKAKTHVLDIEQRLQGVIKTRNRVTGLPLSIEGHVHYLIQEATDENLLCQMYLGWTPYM

| Structure (SMILES) | Ki |
| --- | --- |
| CC(C)S(=O)(=O)c1ccc(-c2cnc3[nH]cc(-c4ccccc4)c3n2)cc1 [Compound I-5, 2-(4-isopropylsulfonylphenyl)-7-phenyl-5H-pyrrolo[2,3-b]pyrazine] | > 50 nM |
| CCn1cc(-c2c[nH]c3ncc(-c4ccc(S(=O)(=O)C(C)C)cc4)nc23)cn1 [Compound I-7, 7-(1-ethylpyrazol-4-yl)-2-(4-isopropylsulfonylphenyl)-5H-pyrrolo[2,3-b]pyrazine] | > 50 nM |
| CC(C)S(=O)(=O)c1ccc(-c2cnc3[nH]cc(-c4ccccc4C#N)c3n2)cc1 [Compound I-8, 2-[2-(4-isopropylsulfonylphenyl)-5H-pyrrolo[2,3-b]pyrazin-7-yl]benzonitrile] | > 50 nM |
| CC(C)S(=O)(=O)c1ccc(-c2cnc3[nH]cc(-c4cnc(N)cn4)c3n2)cc1 [Compound I-9, 5-[2-(4-isopropylsulfonylphenyl)-5H-pyrrolo[2,3-b]pyrazin-7-yl]pyrazin-2-amine] | > 50 nM |
| CC(C)S(=O)(=O)c1ccc(-c2cnc3[nH]cc(-c4ccc(OCCCN(C)C)nc4)c3n2)cc1 [Compound I-11, 3[[5-[2-(4-isopropylsulfonylphenyl)-5H-pyrrolo[2,3-b]pyrazin-7-yl]-2-pyridyl]oxy]-N,N-dimethyl-propan-1-amine] | > 50 nM |
| CC(C)S(=O)(=O)c1ccc(-c2cnc3[nH]cc(-c4cccc5[nH]ccc45)c3n2)cc1 [Compound I-12, 7-(1H-indol-4-yl)-2-(4-isopropylsulfonylphenyl)-5H-pyrrolo[2,3-b]pyrazine] | > 50 nM |
| COc1ccccc1-c1c[nH]c2ncc(-c3ccc(S(=O)(=O)C(C)C)cc3)nc12 [Compound I-15, 2-(4-isopropylsulfonylphenyl)-7-(2-methoxyphenyl)-5H-pyrrolo[2,3-b]pyrazine] | > 50 nM |
| CC(C)S(=O)(=O)c1ccc(-c2cnc3[nH]cc(-c4ccccc4CO)c3n2)cc1 [Compound I-16, [2-[2-(4-isopropylsulfonylphenyl)-5H-pyrrolo[2,3-b]pyrazin-7-yl]phenyl]methanol] | > 50 nM |
| COCc1ccccc1-c1c[nH]c2ncc(-c3ccc(S(=O)(=O)C(C)C)cc3)nc12 [Compound I-17, 2-(4-isopropylsulfonylphenyl)-7-[2-(methoxymethyl)phenyl]-5H-pyrrolo[2,3-b]pyrazine] | > 50 nM |
| CC(C)S(=O)(=O)c1ccc(-c2cnc3[nH]cc(-c4ccccc4C(N)=O)c3n2)cc1 [Compound I-18, 2-[2-(4-isopropylsulfonylphenyl)-5H-pyrrolo[2,3-b]pyrazin-7-yl]benzamide] | > 50 nM |
| CC(C)S(=O)(=O)c1ccc(-c2cnc3[nH]cc(-c4ccccc4C(=O)N(C)C)c3n2)cc1 [Compound I-19, 2-[2-(4-isopropylsulfonylphenyl)-5H-pyrrolo[2,3-b]pyrazin-7-yl]-N,N-dimethyl-benzamide] | > 50 nM |
| CC(C)S(=O)(=O)c1ccc(-c2cnc3[nH]cc(-c4cscc4C#N)c3n2)cc1 [Compound I-21, 4-[2-(4-isopropylsulfonylphenyl)-5H-pyrrolo[2,3-b]pyrazin-7-yl]thiophene-3-carbonitrile] | > 50 nM |
| Cc1noc(C)c1-c1c[nH]c2ncc(-c3ccc(S(=O)(=O)C(C)C)cc3)nc12 [Compound I-25, 4-[2-(4-isopropylsulfonylphenyl)-5H-pyrrolo[2,3-b]pyrazin-7-yl]-3,5-dimethyl-isoxazole] | > 50 nM |
| Cc1cscc1-c1c[nH]c2ncc(-c3ccc(S(=O)(=O)C(C)C)cc3)nc12 [Compound I-27, 2-(4-isopropylsulfonylphenyl)-7-(4-methyl-3-thienyl)-5H-pyrrolo[2,3-b]pyrazine] | > 50 nM |
| Cc1ccsc1-c1c[nH]c2ncc(-c3ccc(S(=O)(=O)C(C)C)cc3)nc12 [Compound I-28, 2-(4-isopropylsulfonylphenyl)-7-(3-methyl-2-thienyl)-5H-pyrrolo[2,3-b]pyrazine] | > 50 nM |
| COc1ccc(-c2c[nH]c3ncc(-c4ccc(S(=O)(=O)C(C)C)cc4)nc23)cc1 [Compound I-29, 2-(4-isopropylsulfonylphenyl)-7-(4-methoxyphenyl)-5H-pyrrolo[2,3-b]pyrazine] | > 50 nM |
| COc1ccc(-c2c[nH]c3ncc(-c4ccc(S(=O)(=O)C(C)C)cc4)nc23)cn1 [Compound I-31, 2-(4-isopropylsulfonylphenyl)-7-(6-methoxy-3-pyridyl)-5H-pyrrolo[2,3-b]pyrazine] | > 50 nM |
| CC(C)S(=O)(=O)c1ccc(-c2cnc3[nH]cc(-c4ccc5[nH]ccc5c4)c3n2)cc1 [Compound I-35, 7-(1H-indol-5-yl)-2-(4-isopropylsulfonylphenyl)-5H-pyrrolo[2,3-b]pyrazine] | 10 to 50 nM |
| CC(C)S(=O)(=O)c1ccc(-c2cnc3[nH]cc(-c4cc5ccccc5o4)c3n2)cc1 [Compound I-36, 7-(benzofuran-2-yl)-2-(4-isopropylsulfonylphenyl)-5H-pyrrolo[2,3-b]pyrazine] | 10 to 50 nM |

Continued, values first:

| Ki | Structure (SMILES) |
| --- | --- |
| 10 to 50 nM | CC(C)S(=O)(=O)c1ccc(-c2cnc3[nH]cc(-c4cccnc4)c3n2)cc1 [Compound I-1, 2-(4-Isopropylsulfonylphenyl)-7-(3-pyridyl)-5H-pyrrolo[2,3-b]pyrazine] |
| 10 to 50 nM | CC(C)S(=O)(=O)c1ccc(-c2cnc3[nH]cc(C#Cc4ccccc4)c3n2)cc1 [Compound I-2, 2-(4-Isopropylsulfonylphenyl)-7-(2-phenylethynyl)-5H-pyrrolo[2,3-b]pyrazine] |
| ≤ 10 nM | CC(C)S(=O)(=O)c1ccc(-c2cnc3[nH]cc(-c4cc(-c5ccccc5)no4)c3n2)cc1 [Compound I-3, 5-[2-(4-Isopropylsulfonylphenyl)-5H-pyrrolo[2,3-b]pyrazin-7-yl]-3-phenyl-isoxazole] |
| ≤ 10 nM | CC(N)c1cccc(-c2cc(-c3c[nH]c4ncc(-c5ccc(S(=O)(=O)C(C)C)cc5)nc34)on2)c1 (centres unmarked) [Compound I-4, 1-[3-[5-[2-(4-isopropylsulfonylphenyl)-5H-pyrrolo[2,3-b]pyrazin-7-yl]isoxazol-3-yl]phenyl]ethanamine] |
| ≤ 10 nM | CC(C)S(=O)(=O)c1ccc(-c2cnc3[nH]cc(-c4cnc5[nH]ccc5c4)c3n2)cc1 [Compound I-6, 2-(4-isopropylsulfonylphenyl)-7-(1H-pyrrolo[2,3-b]pyridin-5-yl)-5H-pyrrolo[2,3-b]pyrazine] |
| 10 to 50 nM | CC(C)S(=O)(=O)c1ccc(-c2cnc3[nH]cc(-c4ccncc4)c3n2)cc1 [Compound I-10, 2-(4-isopropylsulfonylphenyl)-7-(4-pyridyl)-5H-pyrrolo[2,3-b]pyrazine] |
| ≤ 10 nM | CC(C)S(=O)(=O)c1ccc(-c2cnc3[nH]cc(-c4cnc(N)nc4)c3n2)cc1 [Compound I-13, 5-[2-(4-isopropylsulfonylphenyl)-5H-pyrrolo[2,3-b]pyrazin-7-yl]pyrimidin-2-amine] |
| 10 to 50 nM | CC(C)S(=O)(=O)c1ccc(-c2cnc3[nH]cc(-c4ccccc4O)c3n2)cc1 [Compound I-14, 2-[2-(4-isopropylsulfonylphenyl)-5H-pyrrolo[2,3-b]pyrazin-7-yl]phenol] |
| 10 to 50 nM | CC(C)S(=O)(=O)c1ccc(-c2cnc3[nH]cc(-c4scc5c4OCCO5)c3n2)cc1 [Compound I-20, 7-(2,3-dihydrothieno[3,4-b][1,4]dioxin-5-yl)-2-(4-isopropylsulfonylphenyl)-5H-pyrrolo[2,3-b]pyrazine] |
| 10 to 50 nM | CC(C)S(=O)(=O)c1ccc(-c2cnc3[nH]cc(-c4ccsc4)c3n2)cc1 [Compound I-22, 2-(4-isopropylsulfonylphenyl)-7-(3-thienyl)-5H-pyrrolo[2,3-b]pyrazine] |
| 10 to 50 nM | CC(C)S(=O)(=O)c1ccc(-c2cnc3[nH]cc(-c4ccc(F)nc4)c3n2)cc1 [Compound I-23, 7-(6-fluoro-3-pyridyl)-2-(4-isopropylsulfonylphenyl)-5H-pyrrolo[2,3-b]pyrazine] |
| ≤ 10 nM | CC(C)S(=O)(=O)c1ccc(-c2cnc3[nH]cc(-c4cccnc4F)c3n2)cc1 [Compound I-24, 7-(2-fluoro-3-pyridyl)-2-(4-isopropylsulfonylphenyl)-5H-pyrrolo[2,3-b]pyrazine] |
| 10 to 50 nM | Cc1ccc(-c2c[nH]c3ncc(-c4ccc(S(=O)(=O)C(C)C)cc4)nc23)s1 [Compound I-26, 2-(4-isopropylsulfonylphenyl)-7-(5-methyl-2-thienyl)-5H-pyrrolo[2,3-b]pyrazine] |
| 10 to 50 nM | COc1cccc(-c2c[nH]c3ncc(-c4ccc(S(=O)(=O)C(C)C)cc4)nc23)c1 [Compound I-30, 2-(4-isopropylsulfonylphenyl)-7-(3-methoxyphenyl)-5H-pyrrolo[2,3-b]pyrazine] |
| ≤ 10 nM | COc1cc(-c2c[nH]c3ncc(-c4ccc(S(=O)(=O)C(C)C)cc4)nc23)ccn1 [Compound I-33, 2-(4-isopropylsulfonylphenyl)-7-(2-methoxy-4-pyridyl)-5H-pyrrolo[2,3-b]pyrazine] |
| 10 to 50 nM | COc1ncc(-c2c[nH]c3ncc(-c4ccc(S(=O)(=O)C(C)C)cc4)nc23)cn1 [Compound I-34, 2-(4-isopropylsulfonylphenyl)-7-(2-methoxypyrimidin-5-yl)-5H-pyrrolo[2,3-b]pyrazine] |
